“Also recorded” adds a separate entry of the source.
System: women with prior spontaneous preterm birth
Test: Multicenter, prospective, double-blind study of 17P vs. placebo for prevention of recurrent SPTB, secondary analysis by hPR genotype
Type: in vivo, human
Description: The goal of this study was to assess if women with single nucleotide polymorphisms (SNPs) in the human progesterone receptor (hPR) are more or less likely to respond to 17P for the prevention of recurrent SPTB. This study involved secondary analysis of 463 women enrolled in a multicenter, prospective, double-blind study of 17P vs. placebo for the prevention of recurrent SPTB.
Of 463 patients randomized in the original study, 459 were analyzed. Two thirds of women were randomized to 17P and one third were randomized to placebo. Of those patients who received 17P, 111, or 36%, delivered preterm less than 37 weeks, and 195, or 64%, delivered at term. Among those patients who received placebo, the preterm birth rate was higher, as 55% of women delivered preterm. During summer 2008, DNA was extracted from stored saliva samples. […]
20 SNPs in the hPR gene were selected to encompass the large progesterone receptor haplotype block. The 389 individuals with DNA available were then genotyped using TaqMan chemistry with established primers. Allele and genotype frequencies were calculated and evaluated for evidence of genetic predisposition to 17P response. Women were stratified by self-reported race. Primary outcomes evaluated were preterm birth<37 and <32 weeks
Regression was used to assess for an interaction between genotype, treatment, and clinical outcomes. Models controlled for number of prior spontaneous preterm births, smoking, and pre-pregnancy body mass index.
Dominant and recessive models of inheritance were used in this study (see Table 2 above). The dominant model assumes that having at least one copy of the minor allele is sufficient for disease. Patients homozygous for the minor allele and heterozygous patients with one minor allele are grouped together; here “little a/little a” and “Big A/little a” are compared with those homozygous for the major allele, “Big A/Big A.” The recessive model assumes that two copies of the minor allele are needed for disease. Here, those patients who are homozygous for the minor allele “little a/little a” are compared against the others.
Outcomes were available on 459 of the original 463 patients enrolled in the study. The study population of 389 patients was representative of the original cohort (see Table 3 below). The majority of patients in the cohort were African-American. Two-thirds of patients in the cohort received 17P. Furthermore, a similar proportion of patients delivered preterm less than 37 weeks and very preterm, less than 32 weeks, in the cohort when compared to the original study. Additionally, 21.1% of patients smoked during pregnancy. All patients had at least one prior spontaneous preterm birth in order to qualify for the original study. 28% of patients had 2 or more prior spontaneous preterm deliveries. The average pre-pregnancy body mass index was 26.7 kilograms per meter squared.

[1] = all patients who received 17P, original study cohort (459 analyzed)

## CCCCCC(=O)O[C@]1(C(C)=O)CC[C@H]2[C@@H]3CCC4=CC(=O)CC[C@]4(C)[C@H]3CC[C@@]21C [17P, 17 alpha-hydroxyprogesterone caproate]
African Americans, rs471767 AA genotype (homozygous major allele), receiving 17P, placebo nearly 60%
  percentage of patients delivering preterm <37 weeks: 21%
African Americans, rs471767 at least one minor allele (G; AG and GG), receiving 17P
  percentage of patients delivering preterm <37 weeks: under 40%
African Americans, rs578029 at least one major allele (T), receiving 17P, placebo approximately 55%
  rate of prematurity (SPTB): 25%
African Americans, rs578029 homozygous for the minor allele (A)
  reduction in preterm birth rates with 17P: no reduction
[1]
  patients who delivered at term: 64%
  patients who delivered preterm less than 37 weeks: 36%
non-African American (Caucasian/Hispanic), rs666553 at least one minor allele (T), receiving 17P, placebo 26.7%
  rate of preterm birth <32 weeks gestation: 3.4%
non-African American (Caucasian/Hispanic), rs666553 homozygous for the major allele
  reduction in prematurity (<32 weeks) with 17P: do not experience any reduction; also recorded: did not experience any reduction
non-African American, rs503362 at least one minor allele (C), receiving 17P, placebo 17.4%
  rate of preterm birth <32 weeks gestation: 2.6%
non-African American, rs503362 homozygous for the major allele (G)
  reduction in the rate of prematurity (<32 weeks) when receiving 17P: did not have a reduction
